Biological target: CFTR-mediated chloride transport (Homo sapiens, UniProt P13569)
Type: cell-based
Details: enteroid cells incubated with test compound 18-24 hours, acute 10 μM forskolin and 300 nM Compound III; for Max. Activity: % of chloride transport with 3 μM Compound A, 3 μM Compound II and 300 nM acute Compound III triple combination control
Method in brief: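 Human intestinal enteroid cells incubated with compound 18–24 h at 37° C., then membrane potential dye (FLIPR) read 15 min after chloride-free stimulation with 10 μM forskolin, 100 μM IBMX and 300 nM Compound III. AUC expressed as % of triple-combination control (3 μM Compound A, 3 μM Compound II, 300 nM Compound III).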

Chain of CFTR-mediated chloride transport (P13569 whole entry, looked up): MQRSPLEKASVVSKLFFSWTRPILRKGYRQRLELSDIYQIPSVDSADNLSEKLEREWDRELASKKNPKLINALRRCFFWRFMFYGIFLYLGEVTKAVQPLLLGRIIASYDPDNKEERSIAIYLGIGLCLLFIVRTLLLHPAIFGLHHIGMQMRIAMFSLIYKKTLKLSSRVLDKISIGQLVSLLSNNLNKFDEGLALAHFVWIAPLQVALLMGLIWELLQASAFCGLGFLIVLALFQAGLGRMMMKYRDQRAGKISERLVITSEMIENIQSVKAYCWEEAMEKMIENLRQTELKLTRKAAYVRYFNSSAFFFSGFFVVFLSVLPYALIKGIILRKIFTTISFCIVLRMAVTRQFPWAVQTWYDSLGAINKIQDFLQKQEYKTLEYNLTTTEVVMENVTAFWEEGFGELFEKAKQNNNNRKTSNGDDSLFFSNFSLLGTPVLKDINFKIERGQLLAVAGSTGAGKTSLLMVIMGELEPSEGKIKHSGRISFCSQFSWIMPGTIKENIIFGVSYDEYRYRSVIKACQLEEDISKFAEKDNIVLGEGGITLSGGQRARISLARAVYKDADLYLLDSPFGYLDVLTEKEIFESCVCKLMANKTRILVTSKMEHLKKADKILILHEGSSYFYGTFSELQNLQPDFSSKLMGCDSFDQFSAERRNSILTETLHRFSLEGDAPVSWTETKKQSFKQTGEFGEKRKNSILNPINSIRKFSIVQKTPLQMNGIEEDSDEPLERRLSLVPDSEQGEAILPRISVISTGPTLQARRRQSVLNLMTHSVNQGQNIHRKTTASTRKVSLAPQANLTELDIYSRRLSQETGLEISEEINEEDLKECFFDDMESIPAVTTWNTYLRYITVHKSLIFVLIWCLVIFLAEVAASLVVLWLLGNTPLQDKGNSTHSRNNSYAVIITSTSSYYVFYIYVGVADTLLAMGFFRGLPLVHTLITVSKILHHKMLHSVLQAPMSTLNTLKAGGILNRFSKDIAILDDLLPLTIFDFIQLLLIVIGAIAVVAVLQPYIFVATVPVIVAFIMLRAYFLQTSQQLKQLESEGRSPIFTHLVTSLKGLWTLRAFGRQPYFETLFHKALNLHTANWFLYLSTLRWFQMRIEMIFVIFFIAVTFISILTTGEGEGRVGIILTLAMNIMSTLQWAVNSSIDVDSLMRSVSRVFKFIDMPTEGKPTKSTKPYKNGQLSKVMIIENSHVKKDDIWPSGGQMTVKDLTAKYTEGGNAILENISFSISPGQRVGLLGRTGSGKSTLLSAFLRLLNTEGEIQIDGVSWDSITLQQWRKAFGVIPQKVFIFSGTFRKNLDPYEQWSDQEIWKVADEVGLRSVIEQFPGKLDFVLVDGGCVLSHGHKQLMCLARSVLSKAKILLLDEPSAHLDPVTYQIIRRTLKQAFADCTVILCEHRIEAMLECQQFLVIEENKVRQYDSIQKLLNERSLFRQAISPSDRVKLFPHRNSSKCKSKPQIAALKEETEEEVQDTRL

| Compound | EC50 | Max. Activity |
| --- | --- | --- |
| CC1(C)C[C@@H]2CN1c1nc(-n3ccc(OCCC4C5(CC5)C45CC5)n3)ccc1C(=O)NS(=O)(=O)c1cccc(n1)NCCO2 (single isomer, unassigned) [Compound 197, 8-[3-(2-{dispiro[2.0.2.1]heptan-7-yl}ethoxy)-1H-pyrazol-1-yl]-12,12-dimethyl-15-oxa-2λ^6-thia-3,9,11,18,23-pentaazatetracyclo[17.3.1.111,14.05,10]tetracosa-1(23),5(10),6,8,19,21-hexaene-2,2,4-trione] | < 1000 nM | +++ (+++ is >60%) |
| CC1(C)C[C@H]2CCNc3cccc(n3)S(=O)(=O)NC(=O)c3ccc(-n4ccc(OCCCC5(C(F)(F)F)CC5)n4)nc3N1C2 (single isomer, unassigned) [Compound 235, 7,7-dimethyl-11-(3-{3-[1-(trifluoromethyl)cyclopropyl]propoxy}-1H-pyrazol-1-yl)-17λ^6-thia-2,8,10,16,22-pentaazatetracyclo[16.3.1.15,8.09,14]tricosa-1(22),9,11,13,18,20-hexaene-15,17,17-trione] | < 1000 nM | +++ (+++ is >60%) |
| CC1(C)C[C@H]2CCCCc3cccc(n3)S(=O)(=O)NC(=O)c3ccc(-n4ccc(OCCC5(C(F)(F)F)CC5)n4)nc3N1C2 (single isomer, unassigned) [Compound 86, 12,12-dimethyl-8-(3-{2-[1-(trifluoromethyl)cyclopropyl]ethoxy}-1H-pyrazol-1-yl)-2λ^6-thia-3,9,11,23-tetraazatetracyclo[17.3.1.111,14.05,10]tetracosa-1(23),5,7,9,19,21-hexaene-2,2,4-trione] | > 3000 nM | + (+ is <30%) |
| CC(C)(C)CCCN1CCN(c2ccc3c(n2)N2CC(CCCn4ccc(n4)S(=O)(=O)NC3=O)CC2(C)C)C1=O (stereo not shown) [Compound 169, 4-[3-(4,4-dimethylpentyl)-2-oxoimidazolidin-1-yl]-20,20-dimethyl-10λ^6-thia-1,3,9,14,22-pentaazatetracyclo[16.2.1.111,14.02,7]docosa-2,4,6,11(22),12-pentaene-8,10,10-trione] | < 1000 nM | ++ (++ is 30-60%) |
| CC1(C)C[C@@H]2CCCNc3cccc(n3)S(=O)(=O)NC(=O)c3ccc(N4CC[C@H](OCCC56CC7CC(CC(C7)C5)C6)C4=O)nc3N1C2 (single isomer, unassigned) [Compound 241] | < 1000 nM | ++ (++ is 30-60%) |
| CC1(C)CC[C@H]2CCNc3cccc(n3)S(=O)(=O)NC(=O)c3ccc(-n4ccc(OCCC5(C(F)(F)F)CC5)n4)nc3N21 (single isomer, unassigned) [Compound 117, 8,8-dimethyl-12-(3-{2-[1-(trifluoromethyl)cyclopropyl]ethoxy}-1H-pyrazol-1-yl)-18λ^6-thia-2,9,11,17,23-pentaazatetracyclo[17.3.1.05,9.010,15]tricosa-1(23),10(15),11,13,19,21-hexaene-16,18,18-trione] | < 1000 nM | ++ (++ is 30-60%) |
| CC1(C)C[C@H]2C[C@@H](F)CNc3cccc(n3)S(=O)(=O)NC(=O)c3ccc(-n4ccc(OCCC5C6(CC6)C56CC6)n4)nc3N1C2 (single isomer, unassigned) [Compound 307, 8-[3-(2-{dispiro[2.0.2.1]heptan-7-yl}ethoxy)-1H-pyrazol-1-yl]-16-fluoro-12,12-dimethyl-2λ^6-thia-3,9,11,18,23-pentaazatetracyclo[17.3.1.111,14.05,10]tetracosa-1(22),5,7,9,19(23),20-hexaene-2,2,4-trione] | > 3000 nM | + (+ is <30%) |
| CC1(C)C[C@@H]2CN1c1nc(-n3ccc(OCCC4(C(F)(F)F)CC4)n3)ccc1C(=O)NS(=O)(=O)c1ccn(n1)CCO2 (single isomer, unassigned) [Compound 302, 20,20-Dimethyl-4-(3-{2-[1-(trifluoromethyl)cyclopropyl]ethoxy}-1H-pyrazol-1-yl)-17-oxa-10λ^6-thia-1,3,9,14,22-pentaazatetracyclo[16.2.1.111,14.02,7]docosa-2(7),3,5,11(22),12-pentaene-8,10,10-trione] | > 3000 nM | + (+ is <30%) |

Source: patent US11866450B2, “Modulators of Cystic Fibrosis Transmembrane Conductance regulator, pharmaceutical compositions, methods of treatment, and process for making the modulators” (priority 2018, dated 2024)
